This is an account of results in patent publication US5063245A, “Corticotropin-releasing factor antagonism compounds” (Nova Pharmaceutical Corporation, priority 1990, dated 1991).

Assay [1] addresses T1, CRF receptor (Rattus norvegicus, UniProt P35353).
T1 construct: the cerebral cortex was removed and the tissue homogenized; from tissue; host or cells: cerebral cortex membranes of male Sprague-Dawley rats
T1 sequence (P35353 24-415): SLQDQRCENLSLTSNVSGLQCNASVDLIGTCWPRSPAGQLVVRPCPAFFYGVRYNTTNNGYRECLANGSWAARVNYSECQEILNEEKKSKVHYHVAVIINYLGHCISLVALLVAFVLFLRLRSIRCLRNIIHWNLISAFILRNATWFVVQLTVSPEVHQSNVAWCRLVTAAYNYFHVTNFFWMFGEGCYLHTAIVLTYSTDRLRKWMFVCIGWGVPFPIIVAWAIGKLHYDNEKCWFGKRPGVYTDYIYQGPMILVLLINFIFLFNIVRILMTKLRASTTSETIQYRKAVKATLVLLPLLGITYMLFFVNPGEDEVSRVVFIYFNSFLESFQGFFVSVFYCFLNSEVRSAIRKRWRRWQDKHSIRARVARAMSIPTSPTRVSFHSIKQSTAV
In words: In vitro receptor binding: inhibition of specific binding of [125I]tyrosine-oCRF to rat cerebral cortex membranes. Particulars: [125I]Tyr-oCRF 50-100 pM, 2 hours at room temperature. On the procedure: The potency of the compounds of the invention as inhibitors of the specific binding of radiolabeled CRF to rat cerebral cortex membranes was examined using a standard in vitro radioligand binding technique. […] The homogenate was centrifuged at 48,000×g for 10 minutes at 4° C. The supernatant was removed, the tissue pellet suspended in the original volume of fresh homogenization buffer using a Polytron and centrifuged as before. […] Incubation buffer consists of 50 mM Hepes (pH 7.0 at 22° C.) containing 10 mM MgCl2, 2 mM EGTA, 0.1 mM bacitracin, 100 KIU (kallikrein inhibitor units)/mL aprotinin and 0.1% BSA (bovine serum albumin). […] Nonspecific binding was determined in the presence of 1 μM oCRF. The binding reaction was allowed to proceed for 2 hours at room temperature. Bound radioligand was separated from the incubation medium by centrifugation in a Beckman microfuge for 5 minutes at 12,000×g. The supernatant was aspirated and the resulting pellet was washed with 1 mL of cold phosphate buffered saline (pH 7.2) containing 0.01% of Triton X-100.
Tyr-oCRF to rat cortical membranes was determined on at least three separate occasions using 8-10 concentrations of each compound and utilizing triplicate incubations. The IC50 and apparent Hill coefficient for each compound were calculated using a computer-assisted log-logit analysis.

Assay [2] concerns the target CRF-stimulated adenylate cyclase. In words: Inhibition of CRF-stimulated adenylate cyclase activity (rat frontal cortex). It is filed as biochemical. Particulars: 1 μM oCRF, 37° C., 10 minutes. From the text: CRF antagonist activity is established by the ability of the compounds to antagonize CRF-stimulated adenylate cyclase activity, it having been established that CRF receptors are coupled to a guanine nucleotide regulatory protein that activates adenylate cyclase [G. Aguilera et al., Neuroendocrinology, 43, 79 (1986); G. Battaglia et al., Synapse, 1, 572 (1987)].
(§1) Male Sprague-Dawley rats (175-250 g) were sacrificed by decapitation, the frontal cortex was dissected and homogenized in 30 volumes (w/v) of ice-cold buffer (50 mM Tris HCl, 10 mM MgCl2, 2 mM EGTA; pH 7.2 at 22° C.). The homogenate was centrifuged at 40,000×g for 3 minutes (4° C.), the supernatant discarded and the pellet resuspended in original volume of fresh homogenization buffer. Following centrifugation at 40,000×g for 30 minutes, the resulting pellet was suspended to a tissue concentration of 20 mg original wet weight of tissue per mL (approximately 40-60 μg protein/mL). For determination of basal adenylate cyclase activity, assays are carried out at 37° C. for 10 minutes in 250 μL of buffer containing 100 mM Tris HCl, 10 mM MgCl2, 0.4 mM EGTA, 0.1% BSA, 1 mM isobutylmethylxanthine (IBMX), 3 units/tube phosphocreatine kinase, 5 mM creatine phosphate, 100 μM guanosine. Maximal stimulation of adenylate cyclase activity was accomplished by the addition of 10^-6 M oCRF. Stimulated enzyme activity generally represented a 75-95% increase over basal levels. Reactions were initiated by the addition of tissue and terminated by the addition of 150 μL of 50 mM Tris HCl, 45 mM ATP, 2% sodium dodecyl sulfate (SDS), and [^3 H] cAMP (approximately 40,000 dpm). The [^3 H]cAMP was added to each assay tube to monitor recovery of cAMP during subsequent chromatography steps. Separation of [^32 P]cAMP from [^32 P]ATP was accomplished by sequential elution over Dowex and alumina columns. The eluate (4 mL) was collected in 20 mL scintillation vials to which 8 mL of Beckman EP fluor was added. Vials were shaken for 30 minutes prior to measuring ^3 H and ^32 P by scintillation counting. All data were fed directly from the liquid scintillation counter via RS232 port to a VAX 8300 computer. Individual data points were expressed as pmoles of cAMP formed/10 minutes/mg protein. Protein content of tissue samples was measured using the BioRad method with bovine serum albumin serving as the standard.
Determination of antagonist activity was accomplished by addition of at least six concentrations of the compound (10^-8 -10^-4 M), evaluated in triplicate, in the presence of a maximally stimulating concentration of oCRF (1 μM). IC50 values were derived from a log-logit transformation of the data on a Vax 8300.

For assay [3] the following is noted: intracerebroventricular (icv); cited from earlier work.
The subject of assay [4] is adenylate cyclase. Kind of assay: Stimulation of adenylate cyclase activity by oCRF (rat frontal cortex). It is filed as biochemical. The settings on record: 10^-6 M oCRF, 37° C., 10 minutes. On the procedure: as §1, with “Reactions were initiated by the addition of tissue and terminated by the addition of 150 μL of 50 mM Tris HCl, 45 mM ATP, 2% sodium dodecyl sulfate (SDS), and [^3 H] cAMP (approximately 40,000 dpm). The [^3 H]cAMP was added to each assay tube to monitor recovery of cAMP during subsequent chromatography steps. Separation of [^32 P]cAMP from [^32 P]ATP was accomplished by sequential elution over Dowex and alumina columns. The eluate (4 mL) was collected in 20 mL scintillation vials to which 8 mL of Beckman EP fluor was added. Vials were shaken for 30 minutes prior to measuring ^3 H and ^32 P by scintillation counting. All data were fed directly from the liquid scintillation counter via RS232 port to a VAX 8300 computer.” left out

Where [5] appears, read: Table I, Formula I, read-out: Inhibition of CRF Binding, Rat Cerebral Cortex Membrane, IC50.
The mark [6] stands for this setting: Table II, Formula II (disulfides), read-out: Inhibition of CRF Binding, Rat Cerebral Cortex Membrane, IC50.
Setting [7] is: Table II, Formula II (disulfides).

The IC50 is the concentration that inhibits the measured activity by half.

Entries after “also recorded” stand apart in the source; their conditions may differ. Counter-ions that a name gives are not always drawn. Like-named read-outs stand apart in the source and are kept apart here. Ends that are not written are not given here.

As for `CC(=O)Nc1cccc(-c2c(SC#N)c(=O)n(-c3ccccc3)n2C)c1` [Formula I: Ph, CH3,3-AcNHPh, SCN, 2-methyl-5-oxo-1-phenyl-3-(3-acetamidophenyl)-3-pyrazolin-4-yl thiocyanate], the IC50 worked out at 6.5 µM in assay [1] (setting [5]) and 3 µM in assay [2] (Table I, Formula I).

As for `CCc1c(SC#N)c(=O)n(-c2ccccc2)n1C` [Formula I: Ph, CH3, CH2 CH3, SCN, 3-ethyl-2-methyl-5-oxo-1-phenyl-3-pyrazolin-4-yl thiocyanate], the IC50 amounted to 19.1 µM in assay [1] (setting [5]) and 31.7 µM in assay [2] (Table I, Formula I).

`CC(=O)Sc1c(C)n(C)n(-c2ccccc2)c1=O` [Formula I: Ph, CH3, CH3, SAc, 2,3-dimethyl-5-oxo-1-phenyl-3-pyrazolin-4-yl thioacetate]: the IC50 in assay [1] (setting [5]) was found to be 13.7 µM; in assay [2] (Table I, Formula I) it was 2.9 µM.

On to `Cc1c(SC(Cl)(Cl)Cl)c(=O)n(-c2ccccc2)n1C` [Formula I: Ph, CH3, CH3, SCCl3, 2,3-Dimethyl-5-Oxo-1-Phenyl-3-4-trichloromethylthio-Pyrazoline], for which the IC50 in assay [1] (Inhibition of CRF Binding, Rat Cerebral Cortex Membrane, IC50, Table I, Formula I) worked out at 20.4 µM; in assay [2] (Table I, Formula I), 9.6 µM.

As to `Cc1c(SC#N)c(=O)n(-c2ccccc2)n1C` [Formula I: Ph, CH3, CH3, SCN, 2,3-dimethyl-5-oxo-1-phenyl-3-pyrazolin-4-yl thiocyanate], the IC50 in assay [1] (setting [5]) stood at 16 µM; in assay [2] (Table I, Formula I), 19.5 µM.

In the case of `Cn1c(N)c(SC#N)c(=O)n1-c1ccccc1` [Formula I: Ph, CH3, NH2, SCN, 3-amino-2-methyl-5-oxo-1-phenyl-3-pyrazolin-4-yl thiocyanate], the IC50 in assay [1] (setting [5]) is 14.4 µM; in assay [2] (Table I, Formula I), 49.6 µM.

As to `Cc1c(SC#N)c(=O)n(-c2ccccc2)n1-c1ccccc1` [Formula I: Ph, Ph, CH3, SCN, 3-methyl-5-oxo-1,2-phenyl-3-pyrazolin-4-yl thiocyanate], the IC50 in assay [1] (setting [5]) stood at 16.1 µM; in assay [2] (Table I, Formula I), 6.1 µM.

With `CCn1c(C)c(SSc2c(C)n(CC)n(-c3ccc(Cl)c(Cl)c3)c2=O)c(=O)n1-c1ccc(Cl)c(Cl)c1` [Formula II: 3,4-Cl2 Ph, C2 H5, CH3, 2-ethyl-3-methyl-5-oxo-1-(3,4-dichlorophenyl)-3-pyrazolin-4-yl disulfide], the IC50 in assay [1] (setting [6]) came to 2.9 µM; in assay [2] (setting [7]), 4.3 µM.

With `CCn1c(C)c(SSc2c(C)n(CC)n(Cc3ccccc3)c2=O)c(=O)n1Cc1ccccc1` [Formula II: CH2 Ph, C2 H5, CH3, 1-benzyl-2-ethyl-3-methyl-5-oxo-3-pyrazolin-4-yl disulfide], the results for the IC50 in assay [1] (setting [6]) and in assay [2] (setting [7]) were 4.3 µM and 3.8 µM, respectively.

In the case of `CCn1c(C)c(SSc2c(C)n(CC)n(-c3ccccc3)c2=O)c(=O)n1-c1ccccc1` [Formula II: Ph, C2 H5, CH3, 2-ethyl-3-methyl-5-oxo-1-phenyl-3-pyrazolin-4-yl disulfide], the IC50 in assay [1] (setting [6]) was 4.8 µM; in assay [2] (setting [7]) it was 1 µM.

As to `CCc1c(SSc2c(CC)n(C)n(-c3ccccc3)c2=O)c(=O)n(-c2ccccc2)n1C` [Formula II: Ph, CH3, C2 H5, 3-ethyl-2-methyl-5-oxo-1-phenyl-3-pyrazolin-4-yl disulfide], the IC50 in assay [1] (setting [6]) and in assay [2] (setting [7]) was 3.3 µM each time.

Turning to `Cc1c(SSc2c(C)n(C)n(-c3ccccc3)c2=O)c(=O)n(-c2ccccc2)n1C` [Formula II: Ph, CH3, CH3, 2,3-Dimethyl-5-Oxo-1-Phenyl-3-Pyrazolin-4-yl Disulfide], the results for the IC50 in assay [1] (setting [6]) and in assay [2] (setting [7]) were 2.2 µM and 1.1 µM, respectively.

Turning to `Cc1c(SSc2c(C)n(C)n(-c3ccccc3)c2=O)c(=O)n(-c2ccccc2)n1C` [Formula II: Ph, CH3, CH3, HCl, 2,3-Dimethyl-5-Oxo-1-Phenyl-3-Pyrazolin-4-yl Disulfide], the IC50 was 6.4 µM in assay [1] (setting [6]) and 2.5 µM in assay [2] (setting [7]).

As to “CRF: corticotropin releasing factor (SEEPPISLDLTFHLLREVLEMARAEQLAQQAHSNRKLMEII; ends and bridges not checked; UniProt P06850 154-194, looked up)”, in assay [3], the “effect of icv injection of CRF (in words)” value is “elicits behavioral activation; also recorded: produces a long-lasting activation of the electroencephalogram; also recorded: stimulates the sympathoadrenomedullary pathway; also recorded: increases heart rate and blood pressure; also recorded: increases oxygen consumption; also recorded: alters gastrointestinal activity; also recorded: suppresses food consumption; also recorded: compromises immune function”.

In the case of “oCRF: ovine CRF, a 41 residue straight chain peptide”, the “Stimulated enzyme activity, increase over basal levels” value in assay [4] is listed as 75-95%.
